# Measurements reported in patent US20250122221A1 (NANJING ZAIMING PHARMACEUTICAL CO., LTD., priority 2022, published 2025).
# Target: N-terminal active peptide segment (MI-N899) of POLQ with ATPase activity (Homo sapiens (Human), UniProt O75417)
# Assay: POLQ enzyme activity inhibition experiment (ATPase, NADH-coupled, OD 340 nm)
# Assay type: biochemical
# Settings: 100 nM POLQ (N), 100 μM ATP, 300 nM dT50
# Method: The Envision microplate reader from Perkin Elmer Inc was used to measure the reduction of OD value of NADH at 340 nm, thus reflecting the enzyme activity. Experimental method: The POLQ enzyme was diluted to 100 nM with a reaction buffer (20 mM Tris HCl (pH 7.80), 80 mM KCl, 10 mM MgCl2, 1 mM DTT, 0.01% w/v bovine serum albumin, 0.01% v/v Tween-20, and 5% v/v glycerol). The compounds to be tested were diluted to different concentrations in dimethyl sulfoxide (DMSO) using the Echo 650 pipetting system, and transferred to a 384-well plate, 20 μL/well of 100 nM POLQ was added, and the mixture was incubated at room temperature for 15 minutes. A reaction mixture solution was formulated, and the concentration of each component in the reaction mixture solution was: 100 μM ATP, 300 nM […], 300 μM NADH, 6 mM PEP, 10 U/mL lactate dehydrogenase and 20 U/mL pyruvate kinase. 20 μL/well of reaction mixture solution was added to start the enzyme reaction. […] The concentration range was from 10 μM to 0.0005 μM, and the final concentration of DMSO in the system was 0.2% v/v. The 384-well plate was reacted at room temperature for 20 minutes, and then the OD value at 340 nm was read with an Envision microplate reader. The inhibition rate was calculated, and XLfit software was used to perform fitting to obtain IC50 of the compounds. In the experiment, a blank group and a DMSO group were set up, respectively.
# Chain of N-terminal active peptide segment (MI-N899) of POLQ with ATPase activity (O75417 1-899 limits assumed): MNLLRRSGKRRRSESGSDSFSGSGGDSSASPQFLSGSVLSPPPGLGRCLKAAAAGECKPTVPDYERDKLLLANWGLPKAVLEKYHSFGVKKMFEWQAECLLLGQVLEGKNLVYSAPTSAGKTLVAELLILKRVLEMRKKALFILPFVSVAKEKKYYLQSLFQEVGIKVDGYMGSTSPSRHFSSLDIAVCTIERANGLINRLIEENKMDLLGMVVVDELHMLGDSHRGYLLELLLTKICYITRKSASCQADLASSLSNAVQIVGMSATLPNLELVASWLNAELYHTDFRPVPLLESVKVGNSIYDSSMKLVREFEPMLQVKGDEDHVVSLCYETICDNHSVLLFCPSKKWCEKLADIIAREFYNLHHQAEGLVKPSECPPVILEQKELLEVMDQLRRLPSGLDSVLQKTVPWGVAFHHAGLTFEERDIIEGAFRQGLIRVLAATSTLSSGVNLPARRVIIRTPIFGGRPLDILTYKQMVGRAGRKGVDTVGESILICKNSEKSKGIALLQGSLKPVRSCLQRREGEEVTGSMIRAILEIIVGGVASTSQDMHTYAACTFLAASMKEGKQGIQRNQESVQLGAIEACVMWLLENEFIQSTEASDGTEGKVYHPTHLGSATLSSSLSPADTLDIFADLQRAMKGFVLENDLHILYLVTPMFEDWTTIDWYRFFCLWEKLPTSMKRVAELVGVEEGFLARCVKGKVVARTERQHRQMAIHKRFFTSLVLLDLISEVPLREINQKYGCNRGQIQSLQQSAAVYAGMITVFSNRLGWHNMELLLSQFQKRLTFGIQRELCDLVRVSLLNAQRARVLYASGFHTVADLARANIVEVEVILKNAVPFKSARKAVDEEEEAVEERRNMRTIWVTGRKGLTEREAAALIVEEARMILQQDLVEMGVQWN
row,Compound,IC50 [nM]
1,"Cc1cc(-c2cc(Cl)ccc2OC(F)F)c(C(=O)Nc2nc3ncc(-c4ccc(C#N)cc4)nc3s2)cn1 [Compound 89, 4-(5-chloro-2-(difluoromethoxy)phenyl)-N-(6-(4-cyanophenyl)thiazolo[4,5-b]pyrazin-2-yl)-6-methylpyridine-3-carboxamide]",< 100
2,"COc1cnc(C)c(F)c1-c1cc(C)ncc1C(=O)Nc1nc2ncc(-c3ccc(C#N)cc3)nc2s1 [Compound 76, N-(6-(4-cyanophenyl)thiazolo[4,5-b]pyrazin-2-yl)-3′-fluoro-5′-methoxy-2′,6-dimethyl-[4,4′-bipyridine]-3-carboxamide]",< 100
3,"COc1ccccc1-c1cc(C#N)ncc1C(=O)Nc1nc2ncc(-c3ccc(C#N)cc3)nc2s1 [Compound 35, 6-cyano-N-(6-(4-cyanophenyl)thiazolo[4,5-b]pyrazin-2-yl)-4-(2-methoxyphenyl)pyridine-3-carboxamide]",< 100
4,"COc1ccccc1-c1cnccc1C(=O)Nc1nc2ncc(-c3ccc(C)cc3)nc2s1 [Compound 6, 3-(2-methoxyphenyl)-N-(6-(4-methylphenyl)thiazolo[4,5-b]pyrazin-2-yl)pyridine-4-carboxamide]",< 100
5,"C#Cc1ccccc1-c1nc(C)ncc1C(=O)Nc1nc2ncc(-c3ccc(C#N)cc3)nc2s1 [Compound 59, N-(6-(4-cyanophenyl)thiazolo[4,5-b]pyrazin-2-yl)-4-(2-ethynylphenyl)-2-methylpyrimidine-5-carboxamide]",< 100
6,"COc1ccccc1-c1cncc(F)c1C(=O)Nc1nc2ncc(-c3ccc(C#N)cc3)nc2s1 [Compound 54, N-(6-(4-cyanophenyl)thiazolo[4,5-b]pyrazin-2-yl)-3-fluoro-5-(2-methoxyphenyl)pyridine-4-carboxamide]",< 100
7,"C#Cc1cnc(C)cc1-c1cc(C)ncc1C(=O)Nc1nc2ncc(-c3ccc(C#N)cc3)nc2s1 [Compound 64, N-(6-(4-cyanophenyl)thiazolo[4,5-b]pyrazin-2-yl)-5′-ethynyl-2′,6-dimethyl-[4,4′-bipyridine]-3-carboxamide]",< 100
8,"COc1ccccc1-c1cnccc1C(=O)Nc1nc2ncc(-c3ccc(Cl)cc3)nc2s1 [Compound 2, N-(6-(4-chlorophenyl)thiazolo[4,5-b]pyrazin-2-yl)-3-(2-methoxyphenyl)pyridine-4-carboxamide]",< 100
9,COc1ccccc1-c1cc(C)ncc1C(=O)Nc1nc2ncc(-c3ccc(Cl)cc3)nc2s1 [Compound 4],< 100
10,"COc1cnc(C)cc1-c1cc(C)ncc1C(=O)Nc1nc2ncc(-c3ccc(Cl)cc3)nc2s1 [Compound 67, N-(6-(4-chlorophenyl)thiazolo[4,5-b]pyrazin-2-yl)-5′-methoxy-2′,6-dimethyl-[4,4′-bipyridine]-3-carboxamide]",< 100
11,"COc1ccccc1-c1cnccc1C(=O)Nc1nc2ncc(-c3ccc(C#N)cc3F)nc2s1 [Compound 13, N-(6-(4-cyano-2-fluorophenyl)thiazolo[4,5-b]pyrazin-2-yl)-3-(2-methoxyphenyl)isonicotinamide]",< 100
12,"COc1ccc(Cl)cc1-c1cc(C)ncc1C(=O)Nc1nc2ncc(-c3ccc(Cl)cn3)nc2s1 [Compound 71, 4-(5-chloro-2-methoxyphenyl)-N-(6-(5-chloropyridin-2-yl)thiazolo[4,5-b]pyrazin-2-yl)-6-methylpyridine-3-carboxamide]",< 100
13,"N#Cc1cc(-c2ccccc2OC(F)F)c(C(=O)Nc2nc3ncc(-c4ccc(Cl)cc4)nc3s2)cn1 [Compound 18, N-(6-(4-chlorophenyl)thiazolo[4,5-b]pyrazin-2-yl)-6-cyano-4-(2-(difluoromethoxy)phenyl)nicotinamide]",< 100
14,"COc1cc(C#N)ccc1-c1cnc2nc(NC(=O)c3ccncc3-c3ccccc3OC)sc2n1 [Compound 15, N-(6-(4-cyano-2-methoxyphenyl)thiazolo[4,5-b]pyrazin-2-yl)-3-(2-methoxyphenyl)isonicotinamide]",< 100
15,"COc1ccccc1-c1cnccc1C(=O)Nc1nc2ccc(-c3ccc(Cl)cc3)nc2s1 [Compound 1, N-(5-(4-chlorophenyl)thiazolo[5,4-b]pyridin-2-yl)-3-(2-methoxyphenyl)pyridine-4-carboxamide]",100 to 500
16,"COc1ccc(C#N)cc1-c1cc(C)ncc1C(=O)Nc1nc2ncc(-c3ccc(C4CC4)cn3)nc2s1 [Compound 22, 4-(5-cyano-2-methoxyphenyl)-N-(6-(5-cyclopropylpyridin-2-yl)thiazolo[4,5-b]pyrazin-2-yl)-6-methylnicotinamide]",< 100
17,"N#Cc1ccc(-c2cnc3nc(NC(=O)c4cnc(C#N)cc4N4CCOCC4)sc3n2)cc1 [Compound 39, 6-cyano-N-(6-(4-cyanophenyl)thiazolo[4,5-b]pyrazin-2-yl)-4-morpholinopyridine-3-carboxamide]",< 100
18,"COc1ccccc1-c1cnccc1C(=O)Nc1nc2ncc(-c3ccc(C#N)nc3)nc2s1 [Compound 11, N-(6-(6-cyanopyridin-3-yl)thiazolo[4,5-b]pyrazin-2-yl)-3-(2-methoxyphenyl)isonicotinamide]",< 100
19,"C#Cc1ccccc1-c1cc(Cl)ncc1C(=O)Nc1nc2ncc(-c3ccc(C#N)cc3)nc2s1 [Compound 43, 6-chloro-N-(6-(4-cyanophenyl)thiazolo[4,5-b]pyrazin-2-yl)-4-(2-ethynylphenyl)pyridine-3-carboxamide]",< 100
20,"COc1ccccc1-c1cn2ncnc2cc1C(=O)Nc1nc2ncc(-c3ccc(C#N)cc3)nc2s1 [Compound 57, N-(6-(4-cyanophenyl)thiazolo[4,5-b]pyrazin-2-yl)-6-(2-methoxyphenyl)-[1,2,4]triazolo[1,5-a]pyridine-7-carboxamide]",< 100
21,"COc1cccc(F)c1-c1cnccc1C(=O)Nc1nc2ncc(-c3ccc(Cl)cc3)nc2s1 [Compound 3, N-(6-(4-chlorophenyl)thiazolo[4,5-b]pyrazin-2-yl)-3-(2-fluoro-6-methoxyphenyl)pyridine-4-carboxamide]",< 100
